US9113641B2, “Probiotic bacteria and regulation of fat storage” (Arla Foods amba, priority 2007, dated 2015)

Columns and labels:
Format in all cases: cell-based, human
[1] = system: FIAF expression in HT29 cells, PPARγ incapacitated by siRNA; assay: FIAF expression in HT29 cells with PPARγ siRNA
Description: (§1) The human colorectal adenocarcinoma cell lines HCT116 (CCL-247, deposit at ATCC), LoVo (CCL-229, deposit ATCC), HT29 (HTB-38, deposit ATCC) and SW480 (CCL-228, deposit ATCC) were grown and maintained according to supplier's recommendations.
(§2) RNA was prepared using the Qiagen RNeasy Mini Kit following the manufacturer's protocol and cDNA was synthesised using the cDNA synthesis kit from Invitrogen according to protocol. Semi-quantitative, SYBR Green based (Applied Biosystems) real time PCR was used to detect transcripts. Forward and reverse primers were mixed at equal concentration and used at a final concentration of 0.2 μM. ADRP Fw: 5′-[…]-3′ (SEQ ID NO:1), Rv: 5′-[…]-3′ (SEQ ID NO:2); Beta-actin Fw: 5′-CCTGGCACCCAGCACAAT-3′ (SEQ ID NO:3), Rv: 5′-[…]-3′ (SEQ ID NO:4); FIAF Fw: 5′-AAAGAGGCTGCCCGAGAT-3′ (SEQ ID NO:5), Rv: 5′-TCTCCCCAACCTGGAACA-3′ (SEQ ID NO:6); ME Fw: 5′-[…]-3′ (SEQ ID NO:7), Rv: 5′-[…]-3′ (SEQ ID NO:8). Each experiment was carried out in sample duplicates. The mRNA levels of each sample were determined in triplicates. Real time PCR was performed using the ABI 7500 System for data acquisition and analysis by using the ABI 7500 System Sequence Detection software. Data is presented as mean values with standard errors.
Elimination of PPAR transcripts from HT29 cells was accomplished by Dharmacons readymade siRNA products (SMARTpool Human PPARG). […]

[2] = system: FIAF expression in HCT116 cells; assay: FIAF expression in HCT116 cells by real time PCR after stimulation with bacteria, media or compounds; details: concentration curve, 100 μM CLA for 6 h and 24 h
Description: as §1
Strain F19 was always pre-cultured for 6-8 h at 37° C. on a rotating platform (225 rpm). Pre-cultures were then added to pre-warmed deMan Rogosa Sharpe (MRS) medium (dilution 1:20). The cultures were cultivated overnight prior to use. Bacterial concentration at OD600nm was determined: 1 OD600nm=1×10^8 F19/ml. The required amount of F19 was resuspended in an appropriate volume of the respective pre-warmed medium without antibiotics.
Co-culture was prepared by washing the colonic cells with warm PBS. Cells were incubated with 2×10^7/ml of F19 or with medium alone. The experiment was terminated by thoroughly washing the plates with ice-cold PBS.
As a control, F19 was heat-inactivated by incubating at 80° C. for 30 minutes. […]
RNA was prepared using the Qiagen RNeasy Mini Kit following the manufacturer's protocol and cDNA was synthesised using the cDNA synthesis kit from Invitrogen according to protocol. Semi-quantitative, SYBR Green based (Applied Biosystems) real time PCR was used to detect transcripts. […] The mRNA levels of each sample were determined in triplicates. […]

[3] = system: Adipose differentiation-related protein (ADRP); assay: Expression of PPARγ target gene ADRP in HCT116 cells (real time PCR); details: 100 μM CLA for 24 h
Description: as §1
(§3) Conjugated linoleic acid (CLA; 94594) was purchased as a trans-10, cis-12 mix from Sigma. PPARγ and PPARα ligands Troglitazone (5 μM) and WY-14643 (100 μM) were products from Cayman.
as §2, with “Data is presented as mean values with standard errors.” left out

[4] = system: malic enzyme (ME); assay: Expression of PPARα target gene ME in HCT116 cells (real time PCR); details: 100 μM CLA for 24 h
Description: as §1, §3
as §2, with “Data is presented as mean values with standard errors.” left out

## Conjugated linoleic acid [CLA]
[1]
  FIAF expression when PPARγ is incapacitated by siRNA: no longer enhanced
[2]
  FIAF expression induced by CLA, dose and time dependence: upregulate FIAF expression in a dose and time dependent manner
[3]
  Expression of PPARγ target gene ADRP: increased expression
[4]
  Expression of PPARα target gene ME: increased expression
